Data on 1 molecule can be found in patent US20260284016A1, “COMBINATIONS AND METHODS FOR ENHANCING CHECKPOINT INHIBITOR THERAPIES IN CANCER TREATMENT” (PURDUE RESEARCH FOUNDATION, priority 2004, published 2026).

In assay [1] the test system is M2-induced THP-1 macrophages. Description: Secreted CCL18 and IL-1β in THP-1 supernatants by ELISA. It counts as cell-based, human. As for the experimental part: FIGS. 6A-6D show graphical data representative of various marker levels measured from M2-induced THP-1 macrophages treated with different concentrations of drugs for 48 hours (FIGS. 6A and 6B) or for 2 hours, then displaced with fresh medium and cultured for the remaining 46 hours (FIGS. 6C and 6D). In both cases, cell supernatants were collected and secreted CCL18 protein and IL-1β was detected by ELISA.
Further, to ensure that the above mRNA analyses accurately reflected the levels of anti-inflammatory cytokines produced by IL-4, IL-6 plus IL-13 stimulated THP-1 cells, the concentrations of CCL18 and IL-1β polypeptides in the THP-1 supernatants were quantitated by ELISA assay.
(§1) CCL18 and IL-1β were quantified in induced THP-1 cell supernatants using a human DuoSet ELISA Development System (R&D Systems Europe, Abingdon, UK: #DY394-05) and an IL-1 beta Human ELISA Kit (Thermo Fisher Scientific, Waltham, MA; #BMS224-2) as described by manufactures. BALF samples were analyzed for mouse IFN-γ using ELISA MAX™ Deluxe (Biolegend, San Diego, CA; #430804).
Additionally, cell supernatants were collected and secreted CCL18 protein was detected by ELISA.
For orientation: An ELISA detects its analyte on a solid surface through an enzyme-linked reagent.

Another assay has as its system BM-induced mice. Description: Bleomycin-induced pulmonary fibrosis, markers in bronchoalveolar lavage cells and fluid. It counts as in vivo, C57BL/6 mice. As for the experimental part: Fresh water and folate-deficient diet were freely available.
After 2 hours, mice were sacrificed using CO2 asphyxiation and an incision in the skin from the abdomen to neck was immediately made to expose the lungs and trachea. A small cut in the upper trachea was then introduced for insertion of a blunted, 22-gauge needle, and a nylon string was tied around the trachea to seal the trachea around the needle. The trachea (containing the inserted needle), lungs and heart were then removed en masse by carefully cutting the connective tissue beneath the lungs, and the bronchus of left lung was clipped with a Dieffenbach vessel clip. The right lung was injected with PBS and aspirated 3 times using a 1 ml syringe, and the recovered lavage fluid was saved on ice.
Bronchoalveolar lavage fluid (BALF) was then analyzed to determine how the targeted TLR7 agonist works. BALF samples were centrifuged at 1500 rpm for 5 min at 4° C., and the supernatant was aliquoted and stored at −80° C., for cytokine/chemokine analyses. Cell pellets were resuspended and cultured in pre-warmed RPMI 1640 medium for 2 hours and then washed 3x with pre-warmed PBS prior to harvesting for qPCR assay. The right lung was then tied with a nylon string and used for subsequent analysis of hydroxyproline content. The left lung was inflated with 1 ml PBS using the inserted syringe and transferred to 10% formalin solution for subsequent histological analyses.
as §1

Assay [2] deals with M2-induced human monocyte-derived macrophages. Briefly: Reprogramming of M2-induced human monocyte-derived macrophages with FA-glucosamine competition. The assay is classed as cell-based. Particulars: 100 nM, 2+46 hours. As to the method:
Arg1 (FIG. 19A), CD206 (FIG. 19B) and CD163 (FIG. 19C), and protein levels of secreted anti-inflammatory CCL18 (FIG. 19D) and proinflammatory cytokines, CXCL10 (FIG. 19E) and IL-6 (FIG. 19F) (n=3, technical replicates) were then determined. Changes in both sets of cytokines were inhibited by blockade of unoccupied folate receptors with excess FA-glucosamine (2+46 hours, competition).

In assay [3] the test system is M2-induced THP-1 macrophages. Briefly: Reprogramming of M2-polarized THP-1 macrophages, marker mRNA by qPCR. It counts as cell-based, human. The settings on record: 48 hours incubation, FIGS. 3A-3F, compared with nontargeted Compound 1A.
Setting [4] is: continuous incubation 48 hours, ELISA.
The mark [5] stands for this setting: dosing every other day from day 10, BALF day 21.

Each structure is given as a SMILES string.

For `CCCCc1nc2c(N)nc3ccccc3c2n1CC(C)(C)OC(=O)OCCSSCC(NC(=O)CCC(NC(=O)c1ccc(NCc2cnc3nc(N)[nH]c(=O)c3n2)cc1)C(=O)O)C(=O)O` (stereo not drawn) [Compound 1B], in assay [1] (setting [4]), the “secreted CCL18 polypeptide” value was “reductions” and the “secreted IL-1β polypeptide” value is reported as “reductions”. Moreover, in assay [1] (drug exposure limited to 2 hours, then 46 hours fresh medium), the “reduction of secreted CCL18 and IL-1β, comparison of 1B with 1A” value is “superior”. In addition, in the assay with BM-induced mice (different doses of Compound 1B), the “total number of BALF cells” value is listed as “decreased in a dose-dependent manner”. For the same molecule, in the assay on BM-induced mice (setting [5]), the “Arg1 (qPCR, lavage macrophages)” value is listed as “suppressed”; the “CD86 transcripts (qPCR)” value is reported as “elevated”; the “IFN-γ concentration (ELISA of lavage fluid)” value is reported as “elevated”; the IRAK-4 result was “upregulation”. In the assay on BM-induced mice (setting [5]), the “MMP9 (qPCR, lavage macrophages)” value is listed as “suppressed” and the “TIMP 3 (qPCR, lavage macrophages)” value was “suppressed”. For the same molecule, in assay [2], the “downregulation of biomarkers with excess FA-glucosamine (competitor)” value is reported as “blocked”. For the same molecule, in assay [3], the “M2 to M1 marker changes, magnitude of impact” value was “somewhat reduced”.
